This is an account of results in publication PMC9065260 (Frontiers in Pharmacology, 2022).

SMILES strings stand for the structures.

One data set relates to KYSE70 cells. The data set is described as follows: MTT assay for cell proliferation and cytotoxicity. Format: cell-based. Conditions: Homo sapiens, KYSE-70; MTT, 48 h, mean ± SD; read-out: IC50 KYSE70.
The test system of the next data set is KYSE410 cells. The data set is described as follows: MTT assay for cell proliferation and cytotoxicity. The data set is classed as cell-based. The settings on record: Homo sapiens, KYSE-410; MTT, 48 h, mean ± SD; read-out: IC50 KYSE410.
For another data set, the system named is KYSE450 cells. The data set can be described thus: MTT assay for cell proliferation and cytotoxicity. The data set is classed as cell-based. Conditions: Homo sapiens, KYSE-450; MTT, 48 h, mean ± SD; read-out: IC50 KYSE450.
The subject of a further data set is H1650 cells. The data set is described as follows: MTT assay for cell proliferation and cytotoxicity. The data set is classed as cell-based. The settings on record: Homo sapiens, NCI-H1650; MTT, 48 h, mean ± SD; read-out: IC50 H1650.
The subject of a further data set is HCC827 cells. The data set can be described thus: MTT assay for cell proliferation and cytotoxicity. The data set is classed as cell-based. The settings on record: Homo sapiens, 48 h, mean ± SD.
The subject of data set [1] is human esophageal epithelial cell SHEE. The data set can be described thus: MTT assay, toxicity against normal cells. The data set is classed as cell-based. Conditions: MTT, normal human esophageal epithelial cells, mean ± SD, read-out: IC50 SHEE.
Procedure: Cells were seeded in 96-well plates with densities of 2,200–2,500 cells/well in 100 μL. One day after seeding, the concentration of the test compounds between 0 and 50 μM, 0.1% DMSO was added to cells as control. Approximately 2200-2500 transfected cells in 100 μL were incubated in quintuplicate in 96-well plates. After 48 h, MTT was added and incubated in the plate for 1–4 h in the incubator.

Procedure for H1650 cells: (§1) The compounds were dissolved in DMSO to make a 50 mM stock solution and were diluted to the concentration of working solutions with the complete growth medium before administration.
(§2) Cells were seeded in 96-well plates with densities of 2,200–2,500 cells/well in 100 μL. One day after seeding, the concentration of the test compounds between 0 and 50 μM, 0.1% DMSO was added to cells as control. […] After 48 h, MTT was added and incubated in the plate for 1–4 h in the incubator.
Procedure for HCC827 cells: as §1, §2
Procedure for KYSE410 cells: as §1, §2
Procedure for KYSE450 cells: as §1, §2
Procedure for KYSE70 cells: as §1, §2

With `COCCOc1cc2ncnc(Nc3cccc(-c4cn(Cc5ccccc5I)nn4)c3)c2cc1OCCOC` [Compound 3b, [6,7-Bis-(2-Methoxy-Ethoxy)-Quinazolin-4-yl]-{3-[1-(2-Iodo-Benzyl)-1H-(1,2,3)Triazol-4-yl]-Phenyl}-Amine], the melting point fell in the range of 93 to 96 °C. In the data set with KYSE70 cells, the IC50 amounted to 9.03 ± 0.82 µM. Further, the IC50 in the data set with KYSE410 cells stood at 17.6 ± 1.37 µM. Also, in the data set on KYSE450 cells, the IC50 was determined as 20.6 ± 1.87 µM. Moreover, in the data set with H1650 cells, the IC50 was greater than 50 µM. In the data set on HCC827 cells, this compound yielded a 50% inhibitory concentration (IC50) greater than 50 µM. In data set [1], the IC50 is 8.05 ± 0.71 µM.

For `COCCOc1cc2ncnc(Nc3cccc(-c4cn(-c5ccccc5OC)nn4)c3)c2cc1OCCOC` [Compound 3k, [6,7-Bis-(2-Methoxy-Ethoxy)-Quinazolin-4-yl]-{3-[1-(2-Methoxy-Phenyl)-1H-[1,2,3]Triazol-4-yl]-Phenyl}-Amine], the melting point was 87 to 90 °C. Moreover, the half-inhibitory concentration (IC50) in the data set with KYSE70 cells was determined as 16 ± 1.53 µM. For the same compound, in the data set on KYSE410 cells, the 50% inhibitory concentration (IC50) was 32 ± 3.25 µM. The IC50 with KYSE450 cells amounted to 20 ± 2.25 µM. Moreover, the 50% inhibitory concentration (IC50) in the data set with H1650 cells was determined as 16 ± 1.69 µM. In addition, the half-inhibitory concentration (IC50) with HCC827 cells came to 6.18 ± 0.61 µM. In addition, the IC50 in data set [1] amounted to 10.3 ± 0.96 µM.

`COCCOc1cc2ncnc(Nc3cccc(-c4cn(-c5cccc([N+](=O)[O-])c5)nn4)c3)c2cc1OCCOC` [Compound 3m, [6,7-Bis-(2-Methoxy-Ethoxy)-Quinazolin-4-yl]-{3-[1-(3-Nitro-Phenyl)-1H-(1,2,3)Triazol-4-yl]-Phenyl}-Amine] came in with a melting point of 98 to 101 °C. The IC50 in the data set with KYSE70 cells turned out to be 3.92 ± 0.15 µM. For the same compound, in the data set on KYSE410 cells, the IC50 was 5.85 ± 0.2 µM. In addition, in the data set on KYSE450 cells, the IC50 was determined as 4.05 ± 0.21 µM. The IC50 with H1650 cells stood at 4.27 ± 0.19 µM. Besides, the IC50 in the data set with HCC827 cells stood at 8.44 ± 0.37 µM. Also, the IC50 in data set [1] was greater than 50 µM.

Compound `COCCOc1cc2ncnc(Nc3cccc(-c4cn(-c5ccccc5Br)nn4)c3)c2cc1OCCOC` [Compound 3i, [6,7-Bis-(2-Methoxy-Ethoxy)-Quinazolin-4-yl]-{3-[1-(2-Bromo-Phenyl)-1H-(1,2,3)Triazol-4-yl]-Phenyl}-Amine] returned a melting point of 93 to 97 °C. Moreover, the IC50 with KYSE70 cells was 36.1 ± 3.17 µM. Also, in the data set with KYSE410 cells, the IC50 was greater than 50 µM. Further, the IC50 in the data set with KYSE450 cells is greater than 50 µM. The IC50 in the data set with H1650 cells is greater than 50 µM. Also, the IC50 with HCC827 cells came to 24.2 ± 2.34 µM. For the same compound, the IC50 in data set [1] was found to be 6.23 ± 0.62 µM.

In the case of `COCCOc1cc2ncnc(Nc3cccc(-c4cn(-c5ccc(F)cc5)nn4)c3)c2cc1OCCOC` [Compound 3g, [6,7-Bis-(2-Methoxy-Ethoxy)-Quinazolin-4-yl]-{3-[1-(4-Fluoro-Phenyl)-1H-(1,2,3)Triazol-4-yl]-Phenyl}-Amine], the melting point was 88 to 91 °C. Moreover, the IC50 in the data set on KYSE70 cells came to 5.46 ± 0.23 µM. Moreover, the IC50 in the data set with KYSE410 cells is greater than 50 µM. Further, in the data set with KYSE450 cells, the IC50 worked out at 44.5 ± 4.23 µM. The half-maximal inhibitory concentration (IC50) in the data set with H1650 cells was 29.6 ± 2.18 µM. For the same compound, the IC50 in the data set on HCC827 cells was greater than 50 µM. Also, the IC50 in data set [1] amounted to 8.01 ± 0.83 µM.

In the case of `COCCOc1cc2ncnc(Nc3cccc(-c4cn(-c5ccccc5)nn4)c3)c2cc1OCCOC` [Compound 3o, [6,7-Bis-(2-Methoxy-Ethoxy)-Quinazolin-4-yl]-[3-(1-Phenyl-1H-(1,2,3)Triazol-4-yl)-Phenyl]-Amine], the IC50 was greater than 50 µM with KYSE70 cells; 49.5 ± 5.01 µM in the data set on KYSE410 cells; 46.8 ± 4.63 µM in the data set with KYSE450 cells; greater than 50 µM in the data set on H1650 cells; greater than 50 µM with HCC827 cells; 14.2 ± 1.61 µM in data set [1].

For `COCCOc1cc2ncnc(Nc3cccc(-c4cn(-c5cccc(OC)c5)nn4)c3)c2cc1OCCOC` [Compound 3e, [6,7-Bis-(2-Methoxy-Ethoxy)-Quinazolin-4-yl]-{3-[1-(3-Methoxy-Phenyl)-1H-(1,2,3)Triazol-4-yl]-Phenyl}-Amine], the IC50 in the data set with KYSE70 cells was 12.6 ± 1.01 µM; in the data set with KYSE410 cells it was greater than 50 µM; in the data set with KYSE450 cells, 6.25 ± 0.35 µM; in the data set on H1650 cells, 21.1 ± 1.74 µM; with HCC827 cells, greater than 50 µM; in data set [1], greater than 50 µM.
